Experimental data from patent US20230248759A1, “ORAL RINSE COMPOSITIONS FOR ALLEVIATING XEROSTOMIA COMPRISING POLYETHYLENE GLYCOL DERIVATIVES” (SunBio Inc., priority 2021, published 2023).

Test system: cultured cells (L-929)
Assay: Cytotoxicity test, liquid sample (dilution type), ISO 10993
Format: cell-based
Details: L-929, liquid test, 0.025 g/ml in media for test material
Method: The cytotoxicity test is a test to confirm the safety of the composition according to the present invention, and the presence and degree of a cytotoxic reaction in cultured cells (L-929) was evaluated. A good laboratory practice (GLP) institution was commissioned to perform the test according to each test method presented in ISO 10993.
5-2. Test Method of Liquid Sample: A liquid test solution was prepared in which a dilution solution (2× E-MEM+10% FBS) and the liquid test material were combined/diluted in a 1:1 ratio. The culture medium of cell L-929 was removed from the plate well, replaced with 1 mL of test solution and control medium (diluent), and then the cells were cultured. During culturing, microscopic examinations were carried out every 24, 48, 72±4 hours to evaluate cytotoxicity. Cadmium chloride (100 uM CdCl2) as a positive control and E-MEM+5% FBS as a negative control were also used in the test.
As the evaluation criteria of the cytotoxicity test, a score of 0 to 4 was recorded by evaluating the morphological change of cells and the degree of change in viable cells according to lysis or separation. Scores 3 and 4 were judged to be cytotoxic, and scores of 1 and 2 were judged to be non-cytotoxic.

[Cl][Cd][Cl] [Positive Control, Cadmium chloride]
0/0/0: Cytotoxicity Score 24 hr (24 hr) | Cytotoxicity Score 48 hr (48 hr) | Cytotoxicity Score 72 hr (72 hr)
